Consider four compounds from patent US20230149408A1, “INHIBITORS OF HUMAN IMMUNODEFICIENCY VIRUS REPLICATION” (VIIV HEALTHCARE UK (No. 5) LIMITED, priority 2020, published 2023).

Common to all, as to assay type: cell-based
Data set [1] is described as follows: Compound cytotoxicity, XTT-based colorimetric assay. The note with it: human; uninfected MT2 cells, day 4, XTT. How it is done:
(§1) Compound cytotoxicity and the corresponding CC50 values were determined using the same protocol as described in the antiviral assay except that uninfected cells were used. Cytotoxicity was assessed on day 4 in uninfected MT2 cells by using a XTT (2,3-bis[2-Methoxy-4-nitro-5-sulfophenyl]-2H-tetrazolium-5-carboxyanilide inner salt)-based colorimetric assay (Sigma-Aldrich, St Louis, Mo).
For orientation: Formazan colour is commonly taken as a measure of viable cells.

A further data set deals with recombinant NL4-3 virus. The experiment in a line: HIV cell culture assay: antiviral activity toward recombinant NL4-3 Renilla luciferase virus in MT-2 cells. How it is done: HIV cell culture assay - MT-2 cells, 293T cells and the proviral DNA clone of NL4-3 virus were obtained from the NIH AIDS Research and Reference Reagent Program. MT-2 cells were propagated in RPMI 1640 media supplemented with 10% heat inactivated fetal bovine serum (FBS), […]. The 293T cells were propagated in DMEM media supplemented with 10% heat inactivated FBS, […]. A recombinant NL4-3 proviral clone, in which a section of the nef gene was replaced with the Renilla luciferase gene, was used to make the reference virus used in these studies. The recombinant virus was prepared through transfection of the recombinant NL4-3 proviral clone into 293T cells using Transit-293 Transfection Reagent from Mirus Bio LLC (Madison, WI). Supernatent was harvested after 2-3 days and the amount of virus present was titered in MT-2 cells using luciferase enzyme activity as a marker by measuring luciferase enzyme activity. Luciferase was quantitated using the EnduRen Live Cell Substrate from Promega (Madison, WI). Antiviral activities of compounds toward the recombinant virus were quantified by measuring luciferase activity in MT-2 cells infected for 4-5 days with the recombinant virus in the presence of serial dilutions of the compound.
The 50% effective concentration (EC50) was calculated by using the exponential form of the median effect equation where (Fa) = 1/[1+ (ED50/drug conc.)m] (Johnson VA, Byington RT. Infectivity Assay. In Techniques in HIV Research. ed. Aldovini A, Walker BD. 71-76. New York: Stockton Press.1990). The 50% inhibitory concentration (EC50) was calculated by using the exponential form of the median effect equation where percent inhibition = 1/[1 + (EC50/drug concentration)m], where m is a parameter that reflects the slope of the concentration-response curve.

For another data set, the system named is uninfected MT2 cells. The experiment in a line: Compound cytotoxicity, XTT-based colorimetric assay. As to conditions: day 4, XTT. The method, then: as §1
Setting [2] is: Human immunodeficiency virus 1, NL43, MT2.

SMILES strings stand for the structures. Where two headings read alike, the source gives them in different places.

`Cn1nc(NS(C)(=O)=O)c2c(Cl)ccc(-n3c([C@H](Cc4cc(F)cc(F)c4)NC(=O)Cn4nc(C(F)F)c5c4C(F)(F)[C@@H]4C[C@H]54)nc4nc(OCCC(F)(F)F)ccc4c3=O)c21` (atropisomer, axis not shown; (P)) [Example 4, N-(1-((6P)-3-(4-chloro-1-methyl-3-(methylsulfonamido)-1H-indazol-7-yl)-4-oxo-7-(3,3,3-trifluoropropoxy)-3,4-dihydropyrido[2,3-d]pyrimidin-2-yl)-2-(3,5-difluorophenyl)ethyl)-2-((3bS,4aR)-3-(difluoromethyl)-5,5-difluoro-3b,4,4a,5-tetrahydro-1H-cyclopropa[3,4]cyclopenta[1,2-c]pyrazol-1-yl)acetamide] showed a half-maximal cytotoxic concentration (CC50) at 4 day in data set [1] of over 500 nM. Further, the EC50 with recombinant NL4-3 virus (setting [2]) was 0.025 nM.
Taken in the same sequence, the figures for `Cn1nc(NS(C)(=O)=O)c2c(Cl)ccc(-n3c([C@H](Cc4cc(F)cc(F)c4)NC(=O)Cn4nc(C(F)F)c5c4C(F)(F)[C@@H]4C[C@H]54)nc4cc(-c5nccc(C(F)F)n5)ccc4c3=O)c21` (single isomer, unassigned) [Example 2] were over 20000 nM and 0.043 nM.
Consider `Cn1nc(NS(C)(=O)=O)c2cccc(-n3c([C@H](Cc4cc(F)cc(F)c4)NC(=O)Cn4nc(C(F)F)c5c4C(F)(F)[C@@H]4C[C@H]54)nc4nc(OCCC(C)(F)F)ccc4c3=O)c21` (single isomer, unassigned) [Example 3], for which the CC50 at 4 day in data set [1] is over 20000 nM. The half-maximal effective concentration (EC50) in the data set with recombinant NL4-3 virus (setting [2]) stood at 0.019 nM.
`Cn1nc(NS(C)(=O)=O)c2c(Cl)ccc(-n3c([C@H](Cc4cc(F)cc(F)c4)NC(=O)Cn4nc(C(F)F)c5c4C(F)(F)[C@@H]4C[C@H]54)nc4cc(-c5cccc(C(F)(F)F)n5)ccc4c3=O)c21` [Example 1, N-((S)-1-((3P)-3-(4-chloro-1-methyl-3-(methylsulfonamido)-1H-indazol-7-yl)-4-oxo-7-(6-(trifluoromethyl)pyridin-2-yl)-3,4-dihydroquinazolin-2-yl)-2-(3,5-difluorophenyl)ethyl)-2-((3bS,4aR)-3-(difluoromethyl)-5,5-difluoro-3b,4,4a,5-tetrahydro-1H-cyclopropa[3,4]cyclopenta[1,2-c]pyrazol-1-yl)acetamide]: in the data set on uninfected MT2 cells, the CC50 is over 20000 nM. Moreover, the EC50 with recombinant NL4-3 virus (MT-2 cells infected 4-5 days, luciferase activity, read-out: EC50) was 0.093 nM.

One may read the CC50 as the concentration at which the toxic effect on the cells reaches its halfway point. Usually EC50 stands for the concentration needed to bring the measured effect to its halfway point.
